# In the supplement of paper PMC10307832:
# Assays:
# Assay in all cases: relative viability (nuclei count vs DMSO), 5 days (fraction); higher = more cells survive
# [1] = tested on: NCI-H1563
# How it was run: (§1)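 One day after seeding in 1536-well plates, lung cancer cell lines were dosed by pin tool. Dosing was either single-drug or a fixed anchor-drug dose plus five library-drug doses (not always all listed) in √10 steps. After 5 days, nuclei were stained in one fix-and-stain step and counted on 4× images, and relative viability is the nuclei count of treated wells over that of vehicle wells, given as the median of duplicate plates.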
# [2] = tested on: LXF-289
# How it was run: as §1
# [3] = tested on: NCI-H661
# How it was run: as §1
# [4] = tested on: NCI-H441
# How it was run: as §1
# [5] = tested on: NCI-H1792
# How it was run: as §1
# [6] = tested on: NCI-H727
# How it was run: as §1
# [7] = tested on: NCI-H520
# How it was run: as §1
# [8] = tested on: NCI-H1915
# How it was run: as §1
# [9] = tested on: NCI-H2347
# How it was run: as §1
# [10] = tested on: NCI-H322M
# How it was run: as §1
# [11] = tested on: RERF-LC-KJ
# How it was run: as §1
# [12] = tested on: NCI-H1651
# How it was run: as §1
# [13] = tested on: NCI-H1355
# How it was run: as §1
# [14] = tested on: PC-14
# How it was run: as §1
# [15] = tested on: NCI-H1755
# How it was run: as §1
# [16] = tested on: NCI-H460
# How it was run: as §1
# [17] = tested on: NCI-H596
# How it was run: as §1
# [18] = tested on: LCLC-103H
# How it was run: as §1
# [19] = tested on: NCI-H3122
# How it was run: as §1
# [20] = tested on: NCI-H650
# How it was run: as §1
smiles,measurement,setting,value
C=C1C(=O)O[C@@H](CCCCCCCC)[C@@H]1C(=O)O [C-75] + CC(C)C[C@H](NC(=O)[C@H](Cc1ccccc1)NC(=O)c1cnccn1)B(O)O [Bortezomib] (partner 0.002 µM),relative viability,[1]; first compound 0.08 µM,0.855
same,relative viability,[1]; first compound 0.253 µM,1.1
same,relative viability,[1]; first compound 0.8 µM,0.963
same,relative viability,[1]; first compound 2.53 µM,0.763
same,relative viability,[1]; first compound 8 µM,0.906
same,relative viability,[2]; first compound 0.08 µM,0.945
same,relative viability,[2]; first compound 0.253 µM,0.984
same,relative viability,[2]; first compound 0.8 µM,0.889
same,relative viability,[2]; first compound 2.53 µM,0.951
same,relative viability,[2]; first compound 8 µM,0.989
same,relative viability,[3]; first compound 0.08 µM,0.696
same,relative viability,[3]; first compound 0.253 µM,0.873
same,relative viability,[3]; first compound 0.8 µM,0.731
same,relative viability,[3]; first compound 2.53 µM,0.973
same,relative viability,[3]; first compound 8 µM,0.655
same,relative viability,[4]; first compound 0.08 µM,0.497
same,relative viability,[4]; first compound 0.253 µM,0.259
same,relative viability,[4]; first compound 0.8 µM,0.447
same,relative viability,[4]; first compound 2.53 µM,0.315
same,relative viability,[4]; first compound 8 µM,0.26
same,relative viability,[5]; first compound 0.08 µM,0.979
same,relative viability,[5]; first compound 0.253 µM,0.881
same,relative viability,[5]; first compound 0.8 µM,0.845
same,relative viability,[5]; first compound 2.53 µM,0.295
same,relative viability,[5]; first compound 8 µM,0.886
same,relative viability,[6]; first compound 0.08 µM,0.773
same,relative viability,[6]; first compound 0.253 µM,1.32
same,relative viability,[6]; first compound 0.8 µM,0.614
same,relative viability,[6]; first compound 2.53 µM,0.582
same,relative viability,[6]; first compound 8 µM,0.99
same,relative viability,[7]; first compound 0.08 µM,0.442
same,relative viability,[7]; first compound 0.253 µM,0.425
same,relative viability,[7]; first compound 0.8 µM,0.578
same,relative viability,[7]; first compound 2.53 µM,0.337
same,relative viability,[7]; first compound 8 µM,0.58
same,relative viability,[8]; first compound 0.08 µM,0.89
same,relative viability,[8]; first compound 0.253 µM,0.977
same,relative viability,[8]; first compound 0.8 µM,0.935
same,relative viability,[8]; first compound 2.53 µM,0.81
same,relative viability,[8]; first compound 8 µM,0.922
same,relative viability,[9]; first compound 0.08 µM,1.06
same,relative viability,[9]; first compound 0.253 µM,1.09
same,relative viability,[9]; first compound 2.53 µM,0.851
same,relative viability,[9]; first compound 8 µM,0.741
same,relative viability,[10]; first compound 0.08 µM,1.36
same,relative viability,[10]; first compound 0.253 µM,1.45
same,relative viability,[10]; first compound 0.8 µM,1.21
same,relative viability,[10]; first compound 2.53 µM,1.09
same,relative viability,[10]; first compound 8 µM,1.25
same,relative viability,[11]; first compound 0.08 µM,1.17
same,relative viability,[11]; first compound 0.253 µM,1.09
same,relative viability,[11]; first compound 0.8 µM,1.21
same,relative viability,[11]; first compound 2.53 µM,1.09
same,relative viability,[11]; first compound 8 µM,1.31
same,relative viability,[12]; first compound 0.08 µM,0.92
same,relative viability,[12]; first compound 0.253 µM,0.894
same,relative viability,[12]; first compound 0.8 µM,0.875
same,relative viability,[12]; first compound 2.53 µM,0.843
same,relative viability,[12]; first compound 8 µM,0.886
same,relative viability,[13]; first compound 0.08 µM,1.24
same,relative viability,[13]; first compound 0.253 µM,1.28
same,relative viability,[13]; first compound 0.8 µM,1.07
same,relative viability,[13]; first compound 2.53 µM,1.1
same,relative viability,[13]; first compound 8 µM,1.21
same,relative viability,[14]; first compound 0.08 µM,0.853
same,relative viability,[14]; first compound 0.253 µM,0.969
same,relative viability,[14]; first compound 0.8 µM,0.94
same,relative viability,[14]; first compound 2.53 µM,0.726
same,relative viability,[14]; first compound 8 µM,0.965
same,relative viability,[15]; first compound 0.08 µM,0.985
same,relative viability,[15]; first compound 0.253 µM,0.96
same,relative viability,[15]; first compound 0.8 µM,0.925
same,relative viability,[15]; first compound 2.53 µM,0.805
same,relative viability,[15]; first compound 8 µM,0.957
same,relative viability,[16]; first compound 0.08 µM,1.05
same,relative viability,[16]; first compound 0.253 µM,1.22
same,relative viability,[16]; first compound 0.8 µM,0.982
same,relative viability,[16]; first compound 8 µM,0.945
same,relative viability,[17]; first compound 0.08 µM,1.18
same,relative viability,[17]; first compound 0.253 µM,1.18
same,relative viability,[17]; first compound 0.8 µM,0.871
same,relative viability,[17]; first compound 2.53 µM,0.996
same,relative viability,[17]; first compound 8 µM,0.988
same,relative viability,[18]; first compound 0.08 µM,1.23
same,relative viability,[18]; first compound 0.253 µM,0.907
same,relative viability,[18]; first compound 0.8 µM,1.06
same,relative viability,[18]; first compound 2.53 µM,0.811
same,relative viability,[18]; first compound 8 µM,1.18
same,relative viability,[19]; first compound 0.08 µM,1.01
same,relative viability,[19]; first compound 0.253 µM,0.987
same,relative viability,[19]; first compound 0.8 µM,0.989
same,relative viability,[19]; first compound 8 µM,1.04
same,relative viability,[20]; first compound 0.08 µM,0.828
same,relative viability,[20]; first compound 0.253 µM,0.691
same,relative viability,[20]; first compound 0.8 µM,0.547
same,relative viability,[20]; first compound 2.53 µM,0.745
same,relative viability,[20]; first compound 8 µM,0.586
